Test results from patent publication US20250163104A1, “MACROCYCLIC IMMUNOMODULATORS” (priority 2021, published 2025).
Where a SMILES comes first, the peptide text is derived from it. Bridges are numbered along the chain shown (N, C = ends). [ ]: non-standard residue; d: D form. The star is where a group is joined. Phe(4-COOH) = N[C@@H](Cc1ccc(C(=O)O)cc1)C(=O)O; Bip = N[C@@H](Cc1ccc(-c2ccccc2)cc1)C(=O)O; Phe(3-Me) = Cc1cccc(C[C@H](N)C(=O)O)c1; 4Pal = N[C@@H](Cc1ccncc1)C(=O)O; Cha = N[C@@H](CC1CCCCC1)C(=O)O; Cit = NC(=O)NCCC[C@H](N)C(=O)O; Carboxymethyl = O=C(O)C*; Nle = CCCC[C@H](N)C(=O)O; Orn = NCCC[C@H](N)C(=O)O; Dab = NCC[C@H](N)C(=O)O; Dap = NC[C@H](N)C(=O)O

Each molecule was assayed against T1, human PD-1 / PD-L1-Ig binding on Jurkat cell line over-expressing human PD-1 (Jurkat-PD-1) (Homo sapiens, UniProt Q15116) (assay: Jurkat-PD-1 Cell Binding High-Content Screening Assay (CBA)). Conditions: Jurkat HPD1_PDL1 IC50, Jurkat-PD-1 cells, PE-labeled PD-L1-Ig 20 nM final.
T1 construct: expressed in transfected cells; host or cells: Jurkat
T1 sequence (Q15116 25-288): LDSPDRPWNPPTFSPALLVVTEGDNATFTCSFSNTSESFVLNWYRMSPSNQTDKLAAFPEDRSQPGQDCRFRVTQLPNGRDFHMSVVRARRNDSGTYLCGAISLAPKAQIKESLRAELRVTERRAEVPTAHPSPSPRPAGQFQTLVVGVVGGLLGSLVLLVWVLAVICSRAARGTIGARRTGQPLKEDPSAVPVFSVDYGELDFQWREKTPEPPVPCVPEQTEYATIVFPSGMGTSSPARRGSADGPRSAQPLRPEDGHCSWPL
Assay type: cell-based
Method in brief: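 Binding of fluorescent PD-L1-Ig (phycoerythrin linked via the Ig tag, 20 nM final) to PD-1-overexpressing Jurkat cells was imaged after a 2 h, 37° C compound pretreatment and 1 hour ligand incubation.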
CC(C)C[C@@H]1NC(=O)[C@H](Cc2c[nH]c3ccccc23)NC(=O)[C@H](CC(=O)O)NC(=O)[C@H](Cc2ccc(OCC(=O)O)cc2)NC(=O)[C@H](CN)NC(=O)CSC[C@@H](C(=O)NCC(N)=O)NC(=O)[C@H](CO)NC(=O)[C@H](C(C)C)NC(=O)[C@H](CC(C)C)NC(=O)[C@H](CC(N)=O)NC(=O)[C@@H](CC(C)C)NC(=O)[C@H](CCN)NC(=O)[C@H](C(C)C)NC(=O)[C@H](Cc2ccc(-c3ccccc3)cc2)NC1=O [Compound 1280] ({CH2CO}-[Dap]Y(Carboxymethyl)DWL[Bip]V[Dab][dL]NLVSCG-NH2; thioether N-14) was tested, and the IC50 was 9.7 nM.

Same assay, conditions: Jurkat-PD-1 cells, PE-labeled PD-L1-Ig 20 nM final; read-out: Jurkat HPD1_PDL1 IC50
Work on CC(C)C[C@@H]1NC(=O)[C@H](Cc2c[nH]c3ccccc23)NC(=O)[C@H](CC(=O)O)NC(=O)[C@H](Cc2ccc(C(=O)O)cc2)NC(=O)[C@H](Cc2ccc(OCC(=O)O)cc2)NC(=O)CSC[C@@H](C(=O)NCC(N)=O)NC(=O)[C@H](CO)NC(=O)[C@H](C(C)C)NC(=O)[C@H](CC(C)C)NC(=O)[C@H](CC(N)=O)NC(=O)[C@@H](CC(C)C)NC(=O)[C@H](CCN)NC(=O)[C@H](C(C)C)NC(=O)[C@H](Cc2ccc(-c3ccccc3)cc2)NC1=O [Compound 1279] ({CH2CO}-Y(Carboxymethyl)[Phe(4-COOH)]DWL[Bip]V[Dab][dL]NLVSCG-NH2; thioether N-14) yielded an IC50 of 13.6 nM. Work on CC(C)C[C@@H]1NC(=O)[C@H](Cc2c[nH]c3ccccc23)NC(=O)[C@H](CC(=O)O)NC(=O)[C@H](Cc2ccncc2)NC(=O)[C@H](CN)NC(=O)CSC[C@@H](C(=O)NCC(N)=O)NC(=O)[C@H](CO)NC(=O)[C@H](C(C)C)NC(=O)[C@H](CC(C)C)NC(=O)[C@H](CC(N)=O)NC(=O)[C@@H](CC(C)C)NC(=O)[C@H](CCN)NC(=O)[C@H](C(C)C)NC(=O)[C@H](Cc2ccc(-c3ccccc3)cc2)NC1=O [Compound 1281] ({CH2CO}-[Dap][4Pal]DWL[Bip]V[Dab][dL]NLVSCG-NH2; thioether N-14) yielded an IC50 of 8.9 nM. CC(C)C[C@@H]1NC(=O)[C@H](Cc2c[nH]c3ccccc23)NC(=O)[C@H](CC(=O)O)NC(=O)[C@H](Cc2ccncc2)NC(=O)[C@H](Cc2ccc(OCC(=O)O)cc2)NC(=O)CSC[C@@H](C(=O)NCC(N)=O)NC(=O)[C@H](CO)NC(=O)[C@H](C(C)C)NC(=O)[C@H](CC(C)C)NC(=O)[C@H](CC(N)=O)NC(=O)[C@@H](CC(C)C)NC(=O)[C@H](CCN)NC(=O)[C@H](C(C)C)NC(=O)[C@H](Cc2ccc(-c3ccccc3)cc2)NC1=O [Compound 1282] ({CH2CO}-Y(Carboxymethyl)[4Pal]DWL[Bip]V[Dab][dL]NLVSCG-NH2; thioether N-14) was tested, and the IC50 was 11.8 nM. For CC(C)C[C@@H]1NC(=O)[C@H](Cc2c[nH]c3ccccc23)NC(=O)[C@H](CC(=O)O)NC(=O)[C@H](Cc2ccc(C(=O)O)cc2)NC(=O)[C@H](Cc2ccc(OCC(=O)O)cc2)NC(=O)CSC[C@@H](C(=O)NCC(N)=O)NC(=O)[C@H](CO)NC(=O)[C@H](C(C)C)NC(=O)[C@H](CC(C)C)NC(=O)[C@H](CC(N)=O)NC(=O)[C@@H](CC(C)C)NC(=O)[C@H](CCCN)NC(=O)[C@H](C(C)C)NC(=O)[C@H](Cc2ccc(-c3ccccc3)cc2)NC1=O [Compound 1283] ({CH2CO}-Y(Carboxymethyl)[Phe(4-COOH)]DWL[Bip]V[Orn][dL]NLVSCG-NH2; thioether N-14), the IC50 was 24.5 nM. In the case of CC(C)C[C@@H]1NC(=O)[C@H](Cc2c[nH]c3ccccc23)NC(=O)[C@H](CC(=O)O)NC(=O)[C@H](Cc2ccncc2)NC(=O)[C@H](CN)NC(=O)CSC[C@@H](C(=O)NCC(N)=O)NC(=O)[C@H](CO)NC(=O)[C@H](C(C)C)NC(=O)[C@H](CC(C)C)NC(=O)[C@H](CC(N)=O)NC(=O)[C@@H](CC(C)C)NC(=O)[C@H](CCCN)NC(=O)[C@H](C(C)C)NC(=O)[C@H](Cc2ccc(-c3ccccc3)cc2)NC1=O [Compound 1285] ({CH2CO}-[Dap][4Pal]DWL[Bip]V[Orn][dL]NLVSCG-NH2; thioether N-14), the IC50 is reported as 42.6 nM. For CC(C)C[C@@H]1NC(=O)[C@H](Cc2c[nH]c3ccccc23)NC(=O)[C@H](CC(=O)O)NC(=O)[C@H](Cc2ccncc2)NC(=O)[C@H](Cc2ccc(OCC(=O)O)cc2)NC(=O)CSC[C@@H](C(=O)NCC(N)=O)NC(=O)[C@H](CO)NC(=O)[C@H](C(C)C)NC(=O)[C@H](CC(C)C)NC(=O)[C@H](CC(N)=O)NC(=O)[C@@H](CC(C)C)NC(=O)[C@H](CCCN)NC(=O)[C@H](C(C)C)NC(=O)[C@H](Cc2ccc(-c3ccccc3)cc2)NC1=O [Compound 1286] ({CH2CO}-Y(Carboxymethyl)[4Pal]DWL[Bip]V[Orn][dL]NLVSCG-NH2; thioether N-14), the IC50 was 50.3 nM. CC(C)C[C@@H]1NC(=O)[C@H](CC(N)=O)NC(=O)[C@@H](CC(C)C)NC(=O)[C@H](CN)NC(=O)[C@H](C(C)C)NC(=O)[C@H](Cc2ccc(-c3ccccc3)cc2)NC(=O)[C@H](C(C)C)NC(=O)[C@H](Cc2c[nH]c3ccccc23)NC(=O)[C@H](CC(=O)O)NC(=O)[C@H](Cc2ccc(C(=O)O)cc2)NC(=O)[C@H](Cc2ccc(OCC(=O)O)cc2)NC(=O)CSC[C@@H](C(=O)NCC(N)=O)NC(=O)[C@H](CO)NC(=O)[C@H](C(C)C)NC1=O [Compound 1288] ({CH2CO}-Y(Carboxymethyl)[Phe(4-COOH)]DWV[Bip]V[Dap][dL]NLVSCG-NH2; thioether N-14) showed an IC50 of 38.9 nM. Work on CC(C)C[C@@H]1NC(=O)[C@H](CC(N)=O)NC(=O)[C@@H](CC(C)C)NC(=O)[C@H](CN)NC(=O)[C@H](C(C)C)NC(=O)[C@H](Cc2ccc(-c3ccccc3)cc2)NC(=O)[C@H](C(C)C)NC(=O)[C@H](Cc2c[nH]c3ccccc23)NC(=O)[C@H](CC(=O)O)NC(=O)[C@H](Cc2ccc(OCC(=O)O)cc2)NC(=O)[C@H](CN)NC(=O)CSC[C@@H](C(=O)NCC(N)=O)NC(=O)[C@H](CO)NC(=O)[C@H](C(C)C)NC1=O [Compound 1289] ({CH2CO}-[Dap]Y(Carboxymethyl)DWV[Bip]V[Dap][dL]NLVSCG-NH2; thioether N-14) yielded an IC50 of 11 nM. In the case of CC(C)C[C@@H]1NC(=O)[C@H](CC(N)=O)NC(=O)[C@@H](CC(C)C)NC(=O)[C@H](CN)NC(=O)[C@H](C(C)C)NC(=O)[C@H](Cc2ccc(-c3ccccc3)cc2)NC(=O)[C@H](C(C)C)NC(=O)[C@H](Cc2c[nH]c3ccccc23)NC(=O)[C@H](CC(=O)O)NC(=O)[C@H](Cc2ccncc2)NC(=O)[C@H](Cc2ccc(OCC(=O)O)cc2)NC(=O)CSC[C@@H](C(=O)NCC(N)=O)NC(=O)[C@H](CO)NC(=O)[C@H](C(C)C)NC1=O [Compound 1290] ({CH2CO}-Y(Carboxymethyl)[4Pal]DWV[Bip]V[Dap][dL]NLVSCG-NH2; thioether N-14), the IC50 is reported as 50.6 nM. With CC(C)C[C@@H]1NC(=O)[C@H](Cc2c[nH]c3ccccc23)NC(=O)[C@H](CC(=O)O)NC(=O)[C@H](Cc2ccc(OCC(=O)O)cc2)NC(=O)[C@H](Cc2ccc(OCC(=O)O)cc2)NC(=O)CSC[C@@H](C(=O)NCC(N)=O)NC(=O)[C@H](CO)NC(=O)[C@H](C(C)C)NC(=O)[C@H](CC(C)C)NC(=O)[C@H](CC(N)=O)NC(=O)[C@@H](CC(C)C)NC(=O)[C@H](CN)NC(=O)[C@H](C(C)C)NC(=O)[C@H](Cc2ccc(-c3ccccc3)cc2)NC1=O [Compound 1291] ({CH2CO}-Y(Carboxymethyl)Y(Carboxymethyl)DWL[Bip]V[Dap][dL]NLVSCG-NH2; thioether N-14) the IC50 was 12.1 nM. For CC(C)C[C@@H]1NC(=O)[C@H](CC(N)=O)NC(=O)[C@@H](CC(C)C)NC(=O)[C@H](CN)NC(=O)[C@H](C(C)C)NC(=O)[C@H](Cc2ccc(-c3ccccc3)cc2)NC(=O)[C@H](C(C)C)NC(=O)[C@H](Cc2c[nH]c3ccccc23)NC(=O)[C@H](CC(=O)O)NC(=O)[C@H](Cc2ccc(OCC(=O)O)cc2)NC(=O)[C@H](Cc2ccc(OCC(=O)O)cc2)NC(=O)CSC[C@@H](C(=O)NCC(N)=O)NC(=O)[C@H](CO)NC(=O)[C@H](C(C)C)NC1=O [Compound 1292] ({CH2CO}-Y(Carboxymethyl)Y(Carboxymethyl)DWV[Bip]V[Dap][dL]NLVSCG-NH2; thioether N-14), the IC50 was 7.2 nM. With CC(C)C[C@@H]1NC(=O)[C@H](CC(N)=O)NC(=O)[C@@H](CC(C)C)NC(=O)[C@H](CN)NC(=O)[C@H](C(C)C)NC(=O)[C@H](Cc2ccc(-c3ccccc3)cc2)NC(=O)[C@H](C(C)C)NC(=O)[C@H](Cc2c[nH]c3ccccc23)NC(=O)[C@H](CC(=O)O)NC(=O)[C@H](Cc2ccncc2)NC(=O)[C@H](CN)NC(=O)CSC[C@@H](C(=O)NCC(N)=O)NC(=O)[C@H](CO)NC(=O)[C@H](C(C)C)NC1=O [Compound 1293] ({CH2CO}-[Dap][4Pal]DWV[Bip]V[Dap][dL]NLVSCG-NH2; thioether N-14) the IC50 was 10.6 nM. With CCCC[C@@H]1NC(=O)[C@H](CCN)NC(=O)[C@@H](CC(C)C)NC(=O)[C@H](CCCN)NC(=O)[C@H](CCCNC(N)=O)NC(=O)[C@H](Cc2ccc(-c3ccccc3)cc2)NC(=O)[C@H](CC(C)C)NC(=O)[C@H](Cc2cccc(C)c2)NC(=O)[C@H](CC(=O)O)NC(=O)[C@H](Cc2ccc(OCC(=O)O)cc2)NC(=O)[C@H](CN)NC(=O)CSC[C@@H](C(=O)N[C@@H](C)C(N)=O)NC(=O)[C@H]([C@@H](C)O)NC(=O)[C@H](C(C)C)NC1=O [Compound 1295] ({CH2CO}-[Dap]Y(Carboxymethyl)D[Phe(3-Me)]L[Bip][Cit][Orn][dL][Dab][Nle]VTCA-NH2; thioether N-14) the IC50 was 9.8 nM. Cc1cccc(C[C@@H]2NC(=O)[C@H](CC(=O)O)NC(=O)[C@H](Cc3ccc(OCC(=O)O)cc3)NC(=O)[C@H](CN)NC(=O)CSC[C@@H](C(=O)N[C@@H](C)C(=O)N[C@@H](CCC(=O)O)C(N)=O)NC(=O)[C@H]([C@@H](C)O)NC(=O)[C@H](C(C)C)NC(=O)[C@H](CC3CCCCC3)NC(=O)[C@H](CCN)NC(=O)[C@@H](CC(C)C)NC(=O)[C@H](CCCN)NC(=O)[C@H](CCCNC(N)=O)NC(=O)[C@H](Cc3ccc(-c4ccccc4)cc3)NC(=O)[C@H](C(C)C)NC2=O)c1 [Compound 1296] ({CH2CO}-[Dap]Y(Carboxymethyl)D[Phe(3-Me)]V[Bip][Cit][Orn][dL][Dab][Cha]VTCAE-NH2; thioether N-14) showed an IC50 of 13.5 nM.
